Article PMC1940322, “The Effect of PPARα, PPARδ, PPARγ, and PPARpan Agonists on Body Weight, Body Mass, and Serum Lipid Profiles in Diet-Induced Obese AKR/J Mice” (PPAR Research, 2007)
Where “and” joins values, the source holds several entries; their conditions need not be identical. Equal values may be shown once.

What was measured:
[1] = molecular target: T1, murine PPARα (Mus musculus, UniProt P23204); test: PPAR-GAL4 transient transfection transactivation assay (SPAP reporter) in CV-1 cells, PPARα; format: cell-based; conditions: for EC50: CV-1 cells, GAL4 chimera, read-out: mPPARα, murine receptor activation EC50; for mPPARα %Max: maximal activation vs reference comparator
T1 construct: expressed in transfected cells; host or cells: CV-1 cells
T1 sequence (P23204 239-466 limits assumed): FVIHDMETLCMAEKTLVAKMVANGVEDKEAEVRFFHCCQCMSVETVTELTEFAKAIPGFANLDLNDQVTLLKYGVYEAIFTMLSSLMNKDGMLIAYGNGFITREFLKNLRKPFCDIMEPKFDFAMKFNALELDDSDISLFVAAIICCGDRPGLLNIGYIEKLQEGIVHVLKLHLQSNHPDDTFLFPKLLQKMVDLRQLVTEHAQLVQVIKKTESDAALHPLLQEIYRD
Method: The functional potency of selected ligands was evaluated using a transient transfection assay in CV-1 cells. The ligand binding domains for murine PPARα, PPARδ, and PPARγ were fused to the yeast transcription factor GAL4 DNA binding domain as a chimera. CV-1 cells were propagated and transiently transfected with expression vectors for the respective PPAR chimera as previously described. Test compounds were compared to reference comparators that give maximum responses in this assay. Compounds which produced an activation of at 70% or greater, compared to a positive control, were considered full agonists.

[2] = molecular target: T2, murine PPARγ (Mus musculus, UniProt P37238); test: PPAR-GAL4 transient transfection transactivation assay (SPAP reporter) in CV-1 cells, PPARγ; format: cell-based; conditions: for EC50: CV-1 cells, GAL4 chimera, read-out: mPPARγ, murine receptor activation EC50; for mPPARγ %Max: maximal activation vs reference comparator
T2 construct: expressed in transfected cells; host or cells: CV-1 cells
T2 sequence (P37238 238-503 limits assumed): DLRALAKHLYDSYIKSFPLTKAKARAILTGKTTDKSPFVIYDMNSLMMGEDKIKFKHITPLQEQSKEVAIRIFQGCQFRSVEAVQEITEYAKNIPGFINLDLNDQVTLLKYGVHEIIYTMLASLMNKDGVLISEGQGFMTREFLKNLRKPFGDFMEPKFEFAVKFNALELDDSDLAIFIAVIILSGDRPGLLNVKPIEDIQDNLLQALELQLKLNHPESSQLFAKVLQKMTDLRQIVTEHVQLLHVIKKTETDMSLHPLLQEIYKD
Method: The functional potency of selected ligands was evaluated using a transient transfection assay in CV-1 cells. The ligand binding domains for murine PPARα, PPARδ, and PPARγ were fused to the yeast transcription factor GAL4 DNA binding domain as a chimera. CV-1 cells were propagated and transiently transfected with expression vectors for the respective PPAR chimera as previously described.

[3] = test system: diet-induced obese (DIO) AKR/J mouse; test: Food consumption in diet-induced obese AKR/J mice; format: in vivo; conditions: for effect on food consumption (in words): compared to vehicle-treated animals, doses and regimen as in methods
Method: In each experiment, BW of each animal was measured and recorded three times weekly throughout the treatment period. Body mass was obtained weekly on days 0, 7, 13, 20, and 27 of treatment. The effects of selective PPARα, δ, and γ agonists on food consumption were also assessed. Food consumption is expressed as total energy consumed (kcal) over a 24-period and as cumulative consumption over the course of the experiment.
The fat content of Research Diets D12331 chow results in pellets that crumbles making it difficult to quantify food consumption thus, Research Diets D12451 chow (4.7 kcal/g (45% kcal from fat, 35% kcal from carbohydrates and 20% kcal from protein)) was used in studies where food consumption was determined as these pellets are more solid. The animals were transitioned two weeks before compound dosing from Research Diets D12331 chow to Research Diets D12451 chow. Previous experiments (data not presented) have shown that animals fed this diet maintain the same BW and fat mass level as observed at the time of transition.
Experiment 1 was designed to study the effects of a selective PPARα agonist and PPARδ agonist as mono and combination therapy. 48 mice were sorted into 6 groups and blocked such that initial BW and body composition were not different between groups. […] Two additional groups of mice were dosed for the first 14 days with either a PPARα agonist or a PPARδ agonist alone. At day 15, the PPARδ agonist was added to the treatment regimen of animals dosed with PPARα, and the PPARα agonist was added to the dosing material of animals previously dosed with PPARδ alone. The sixth group was dosed with both the PPARα and PPARδ agonists for the entire 28-day period. BW and food consumption were assessed 3 times per week and body composition was measured weekly.
In Experiment 2, 32 mice were sorted into 4 groups (n = 8/group) and dosed with vehicle and a selective PPARγ agonist (GW7845, 3 mg/kg) for 28 days. Rimonabant (RIM, 10 or 30 mg/kg, q.d.), a CB1 receptor antagonist, was used as a positive control for weight loss. As in Experiment 1, BW and food consumption were determined 3 times per week and body composition was measured weekly.

Row | selectivity for PPARγ over the other murine PPAR subtypes ([2]; murine receptors) [fold] | Structure (SMILES) | EC50 [1] | mPPARα %Max [1] [%] | EC50 [2] [nM] | mPPARγ %Max [2] [%] | effect on food consumption (in words) [3] | effect on food consumption (in words) ([3]; listed as PPARδ agonist) | increase in food consumption ([3]; 3 mg/kg, after only one day) [%] | food consumption elevated ([3]; 3 mg/kg, over the remaining treatment period) | selectivity for PPARα over PPARγ and PPARδ ([1]; murine receptors) [fold] | effect on food consumption (in words) ([3]; listed as PPARα agonist)
1 | – | Cc1cc(SCc2sc(-c3ccc(C(F)(F)F)c(F)c3)nc2C)ccc1OCC(=O)O [GW0742] | 8810 nM | 55 | 10000 | 67 | transient stimulatory effect on food intake from days 12–17 | small but statistically significant increase in feeding | – | – | – | –
2 | > 1000 | COC(=O)c1ccccc1N[C@@H](Cc1ccc(OCCc2nc(-c3ccccc3)oc2C)cc1)C(=O)O [GW7845] | 10800 nM | 30 | 1.2 | 247 | – | – | 46 | more than 20% | – | –
3 | – | CCCCCCCN(CCc1ccc(SC(C)(C)C(=O)O)cc1)C(=O)Nc1ccc(F)cc1F [GW9578] | 8 nM and 8.1 nM | 95 | 2820 | 96 | significant suppression of food intake | – | – | – | > 250 | reduced food consumption
